Several values for one entry are separate records, joined by “and”; a condition that tells them apart may be missing. Identical values can stand only once. Like-named read-outs stand apart in the source and are kept apart here.
How the values were obtained:
[1] = Pharmacokinetics after 8 mg/kg oral (PO) administration, plasma; format: in vivo, CD1 mice; design: AUClast/D: unit not given here
Protocol: (§1) Protocol for pharmacokinetic and tissue distribution studies. The pharmacokinetics of the compounds was studied in CD1 mice after intravenous (IV) and oral gavage (PO) administration. Mouse PK studies was conducted at 3 mg/kg (IV) and 8 mg/kg (PO). Plasma samples obtained from dosed animals, at ten time points, including 5, 15 and 30 minutes and 1, 1.5, 2, 4, 6, 8 and 24 hr post-dose for processing to plasma, were prepared for analysis by means of a single step protein precipitation technique, by adding 200 μL of acetonitrile containing an IS mixture (labetalol, imipramine and diclofenac) to 50 μL aliquots of individual subject samples. Samples were mixed by vortex for homogeneity and then subjected to centrifugation at 4000 rpm for 10 min. The supernatant (200 μL) was collected and injected into the LC-MS/MS for analysis. Pharmacokinetic parameters will be calculated using established non-compartmental methods. The liver distribution of the compounds was studied in the PO group and liver tissues were collected at each time point after PO administration. Accurately weighed whole liver tissues were collected in a 50 mL tube, and 3 volumes per weight of water will be added. Tissue samples were homogenized and 50 μL of the homogenates will be processed along with plasma samples as described above.

[2] = Pharmacokinetics after 3 mg/kg IV administration, plasma; format: in vivo, CD1 mice
Protocol: as §1

[3] = biological target: T1, OATP1B1 (Homo sapiens, UniProt Q9Y6L6); test: OATP1B1 transporter substrate uptake in OATP1B1-HEK293 cells; format: in vitro ADME; conditions: test concentration 1 μM
T1 construct: expressed in transfected cells; host or cells: HEK293
T1 sequence (Q9Y6L6 1-691): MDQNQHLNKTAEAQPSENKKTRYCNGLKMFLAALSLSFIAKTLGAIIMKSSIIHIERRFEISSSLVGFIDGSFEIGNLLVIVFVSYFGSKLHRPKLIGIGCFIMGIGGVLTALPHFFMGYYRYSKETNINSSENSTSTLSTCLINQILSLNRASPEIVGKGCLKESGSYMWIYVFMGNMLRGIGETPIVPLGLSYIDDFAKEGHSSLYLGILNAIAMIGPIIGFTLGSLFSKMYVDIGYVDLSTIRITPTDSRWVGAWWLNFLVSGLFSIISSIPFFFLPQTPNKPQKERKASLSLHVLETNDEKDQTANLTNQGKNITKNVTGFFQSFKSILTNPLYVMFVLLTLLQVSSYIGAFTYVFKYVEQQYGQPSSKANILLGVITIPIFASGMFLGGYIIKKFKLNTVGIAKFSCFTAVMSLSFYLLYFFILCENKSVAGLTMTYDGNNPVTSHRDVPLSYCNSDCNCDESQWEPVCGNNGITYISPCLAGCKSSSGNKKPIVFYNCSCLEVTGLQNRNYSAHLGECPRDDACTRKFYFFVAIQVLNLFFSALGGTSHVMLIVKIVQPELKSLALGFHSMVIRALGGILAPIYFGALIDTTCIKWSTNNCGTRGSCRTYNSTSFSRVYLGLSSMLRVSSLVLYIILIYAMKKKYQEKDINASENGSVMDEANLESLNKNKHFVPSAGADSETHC

[4] = CD1, mouse, plasma, 8 mg/kg oral, mean
[5] = CD1, mouse, plasma, iv, 3 mg/kg, individual mice
[6] = CD1, mouse, plasma, iv, 3 mg/kg, mean

With `COc1cc2c(cc1OCCCCCCC(=O)O)C[C@@H](C(C)C)n1cc(C(=O)O)c(=O)cc1-2` [Example 6, (S)-9-((6-carboxyhexyl)oxy)-6-isopropyl-10-methoxy-2-oxo-6,7-dihydro-2H-pyrido[2,1-a]isoquinoline-3-carboxylic acid] the F ([1]; 8 mg/kg oral vs 3 mg/kg IV, mean) was 5.09%, the Plasma concentration ([1]; 8 mg/kg oral, 0.25 h, individual animals) was 10.3 ng/mL and 19.5 ng/mL and 18.4 ng/mL and the Plasma concentration ([1]; 8 mg/kg oral, 0.5 h, individual animals) was 9.93 ng/mL and 9.00 ng/mL and 9.40 ng/mL. The Plasma concentration ([1]; 8 mg/kg oral, 1 h, individual animals) was 4.10 ng/mL and 5.94 ng/mL and 9.27 ng/mL, the Plasma concentration ([1]; 8 mg/kg oral, 2 h, individual animals) was 5.41 ng/mL and 4.55 ng/mL and 2.29 ng/mL and the Plasma concentration ([1]; 8 mg/kg oral, 4 h, individual animals) was 3.03 ng/mL and 4.12 ng/mL and 3.68 ng/mL. The Plasma concentration ([1]; 8 mg/kg oral, 6 h, individual animals) was 1.53 ng/mL and 2.42 ng/mL and 2.85 ng/mL, the Plasma concentration ([1]; 8 mg/kg oral, 8 h, individual animals) was 6.65 ng/mL and 2.11 ng/mL and BLOQ and the Plasma concentration ([1]; 8 mg/kg oral, 24 h, individual animals) was “BLOQ”. The AUClast/D ([1]; 8 mg/kg oral, mean) was 4.33, the concentration at 0.25 h ([1]; CD1, mouse, plasma, oral, 8 mg/kg, 8 mg/kg oral, 0.25 h, individual animals, read-out: Plasma concentration) was 18.4 ng/mL and the concentration at 0.25 h ([1]; CD1, mouse, plasma, oral, 8 mg/kg, 8 mg/kg oral, 0.25 h, mean, read-out: Mean plasma concentration) was 16.1 ng/mL. For the same compound, the concentration at 0.5 h ([1]; CD1, mouse, plasma, oral, 8 mg/kg, 8 mg/kg oral, 0.5 h, individual animals, read-out: Plasma concentration) was 9.4 ng/mL, the concentration at 0.5 h ([1]; CD1, mouse, plasma, oral, 8 mg/kg, 8 mg/kg oral, 0.5 h, mean, read-out: Mean plasma concentration) was 9.44 ng/mL and the concentration at 1 h ([1]; CD1, mouse, plasma, oral, 8 mg/kg, 8 mg/kg oral, 1 h, mean) was 6.44 ng/mL. The concentration at 2 h ([1]; CD1, mouse, plasma, oral, 8 mg/kg, 8 mg/kg oral, 2 h, mean) was 4.08 ng/mL, the concentration at 4 h ([1]; CD1, mouse, plasma, oral, 8 mg/kg, 8 mg/kg oral, 4 h, individual animals, read-out: Plasma concentration) was 3.68 ng/mL and the concentration at 4 h ([1]; CD1, mouse, plasma, oral, 8 mg/kg, 8 mg/kg oral, 4 h, mean, read-out: Mean plasma concentration) was 3.61 ng/mL. It also gave a concentration at 6 h ([1]; CD1, mouse, plasma, oral, 8 mg/kg, 8 mg/kg oral, 6 h, individual animals, read-out: Plasma concentration) of 2.85 ng/mL, a concentration at 6 h ([1]; CD1, mouse, plasma, oral, 8 mg/kg, 8 mg/kg oral, 6 h, mean, read-out: Mean plasma concentration) of 2.27 ng/mL and a concentration at 8 h ([1]; CD1, mouse, plasma, oral, 8 mg/kg, 8 mg/kg oral, 8 h, mean) of 4.38 ng/mL. It also gave an AUC(0-t) [1, 4] of 34.7 ng·h/mL, a Cmax [1, 4] of 16.1 ng/mL and a Tmax [1, 4] of 15 min. The Plasma concentration ([2]; 5 min, individual mice) was 979 ng/mL and 689 ng/mL, the Plasma concentration ([2]; 0.25 h, individual mice) was 103 ng/mL and 73.0 ng/mL and the Plasma concentration ([2]; 0.5 h, individual mice) was 31.7 ng/mL and 24.9 ng/mL. The Plasma concentration ([2]; 1 h, individual mice) was 8.52 ng/mL and 6.79 ng/mL, the Plasma concentration ([2]; 2 h, individual mice) was 5.61 ng/mL and 5.51 ng/mL and 2.14 ng/mL and the Plasma concentration ([2]; 4 h, individual mice) was 1.69 ng/mL and BLOQ. For the same compound, the Plasma concentration ([2]; 8 h, individual mice) was “BLOQ”, the Plasma concentration ([2]; 24 h, individual mice) was “BLOQ” and the concentration at 5 min ([2]; CD1, mouse, plasma, intravenous, 3 mg/kg, 5 min, individual mice, read-out: Plasma concentration) was 817 ng/mL. For the same compound, the concentration at 5 min ([2]; CD1, mouse, plasma, intravenous, 3 mg/kg, 5 min, mean, read-out: Mean plasma concentration) was 828 ng/mL, the concentration at 0.25 h ([2]; CD1, mouse, plasma, intravenous, 3 mg/kg, 0.25 h, individual mice, read-out: Plasma concentration) was 82.3 ng/mL and the concentration at 0.25 h ([2]; CD1, mouse, plasma, intravenous, 3 mg/kg, 0.25 h, mean, read-out: Mean plasma concentration) was 86 ng/mL. For the same compound, the concentration at 0.5 h ([2]; CD1, mouse, plasma, intravenous, 3 mg/kg, 0.5 h, individual mice, read-out: Plasma concentration) was 32.8 ng/mL, the concentration at 0.5 h ([2]; CD1, mouse, plasma, intravenous, 3 mg/kg, 0.5 h, mean, read-out: Mean plasma concentration) was 29.8 ng/mL and the concentration at 1 h ([2]; CD1, mouse, plasma, intravenous, 3 mg/kg, 1 h, individual mice, read-out: Plasma concentration) was 11.4 ng/mL. The concentration at 1 h ([2]; CD1, mouse, plasma, intravenous, 3 mg/kg, 1 h, mean, read-out: Mean plasma concentration) was 8.9 ng/mL, the concentration at 2 h ([2]; CD1, mouse, plasma, intravenous, 3 mg/kg, 2 h, mean) was 4.42 ng/mL and the concentration at 4 h ([2]; CD1, mouse, plasma, intravenous, 3 mg/kg, 4 h, individual mice, read-out: Plasma concentration) was 1.85 ng/mL. The concentration at 4 h ([2]; CD1, mouse, plasma, intravenous, 3 mg/kg, 4 h, mean, read-out: Mean plasma concentration) was 1.77 ng/mL, the concentration at 8 h ([2]; CD1, mouse, plasma, intravenous, 3 mg/kg, 8 h, individual mice) was 1.08 ng/mL and the AUC(0-inf) [2, 5] was 268 ng·h/mL. It also gave an AUC(0-t) [2, 5] of 263 ng·h/mL, a C0 ([2]; CD1, mouse, plasma, iv, 3 mg/kg, individual mice, read-out: C0) of 2570 ng/mL and an AUC(0-inf) [2, 6] of 258 ng·h/mL. It also gave an AUC(0-t) [2, 6] of 255 ng·h/mL, a half-life [2, 6] of 88.8 min and a C0 ([2]; CD1, mouse, plasma, iv, 3 mg/kg, mean, read-out: C0) of 2570 ng/mL. The MRT inf ([2]; CD1, mouse, plasma, iv, 3 mg/kg, mean, read-out: MRTInf —obs) was 17.2 min, the Vd ([2]; CD1, mouse, plasma, iv, 3 mg/kg, mean, read-out: Vss —obs) was 3.26 L/kg and the AUCInf ([2]; individual mice) was 301 ng·h/mL and 206 ng·h/mL. The AUClast ([2]; individual mice) was 298 ng·h/mL and 205 ng·h/mL, the “AUC—% Extrap_obs” value ([2]; individual mice) was 1.59% and 1.03% and 0.662% and the C0 ([2]; individual mice) was 3016 ng/mL and 2115 ng/mL. For the same compound, the Cl_obs ([2]; individual mice) was 187 mL/min/kg and 166 mL/min/kg and 242 mL/min/kg, the “MRTInf —obs” value ([2]; individual mice) was 30.1 min and 13.8 min and 7.68 min and the T1/2 ([2]; individual mice) was 2.72 h and 1.27 h and 0.442 h. The “Vss —obs” value ([2]; individual mice) was 5.63 L/kg and 2.29 L/kg and 1.87 L/kg, the AUClast/D ([2]; mean) was 85.1 kg·ng·h/mL/mg and the “AUC—% Extrap_obs” value ([2]; mean) was 1.09%. The Cl_obs ([2]; mean) was 198 mL/min/kg, the “Uptake Ratio (−/+Inhibitor)” value ([3]; OATP1B1-HEK293 cells, inhibitor Rifamycin SV) was 11.17 and the “Uptake Ratio (Transporter(−Inhibitor)/Mock(−Inhibitor))” value ([3]; OATP1B1-HEK293 vs Mock (normal HEK293)) was 18.99.

Reference: US20250296929A1, “NOVEL HEPATOSELECTIVE POLYADENYLATING POLYMERASES INHIBITORS AND THEIR METHOD OF USE” (BARUCH S. BLUMBERG INSTITUTE, priority 2021, published 2025)
